The values below come from PubChem BioAssay AID1259411 (Chemical Carcinogenesis Research Information System (CCRIS), 2018).

Activity calls are given as the source filed them. No rule for the calls is given here.

The data set deals with rodent carcinogenicity bioassays, tumor incidence. The data set can be described thus: CCRIS carcinogenicity studies. In outline: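 Archive of carcinogenicity, mutagenicity, tumor promotion and tumor inhibition results drawn from journals, NCI reports and other sources, expert-reviewed; covers 1985-2011 and is no longer updated.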

Take `O=NN(c1ccccc1)c1ccccc1`: the carcinogen call reads like this: (Species: MOUSE, Strain/Sex: B6C3F1/FEMALE, Route: ORAL, Dose: 0, 2315, 5741 PPM IN DIET, TWA, Dose: 0, 2315, 5741 PPM IN DIET, TWA) “inactive; negative”; (Species: MOUSE, Strain/Sex: B6C3F1/MALE, Route: ORAL, Dose: 0, 10000, 20000 PPM IN DIET, Dose: 0, 10000, 20000 PPM IN DIET) “inactive; negative”; (Species: RAT, Strain/Sex: F344/FEMALE, Route: ORAL, Dose: 0, 1000, 4000 PPM IN DIET, Dose: 0, 1000, 4000 PPM IN DIET, Tumor Site: Type of Lesion: URINARY BLADDER: TRANSITIONAL CELL CARCINOMA) “active; positive”; (Species: RAT, Strain/Sex: F344/MALE, Route: ORAL, Dose: 0, 1000, 4000 PPM IN DIET, Dose: 0, 1000, 4000 PPM IN DIET, Tumor Site: Type of Lesion: INTEGUMENTARY SYSTEM: FIBROMA, URINARY BLADDER: TRANSITIONAL CELL CARCINOMA) “active; positive”.

With `O=c1[nH]c(=O)n(C2CCCO2)cc1F` (stereo not given), the carcinogen call reads like this: (Species: MOUSE, Strain/Sex: C57BL/CBA/FEMALE, Route: GAVAGE, Dose: 0, 40 MG/KG IN 0.2 ML OF A STARCH/WATER SUSPENSION 2/WK FOR 12 MO (STUDY DURATION: LIFETIME)) “inactive; negative”; (Species: MOUSE, Strain/Sex: C57BL/CBA/MALE, Route: GAVAGE, Dose: 0, 40 MG/KG IN 0.2 ML OF A STARCH/WATER SUSPENSION 2/WK FOR 12 MO (STUDY DURATION: LIFETIME)) “inactive; negative”; (Species: RAT, Strain/Sex: WISTAR/FEMALE, Route: GAVAGE, Dose: 0, 60 MG/KG IN 0.5 ML OF A STARCH/WATER SUSPENSION 2/WK FOR 12 MO (STUDY DURATION: LIFETIME)) “inactive; negative”; (Species: RAT, Strain/Sex: WISTAR/MALE, Route: GAVAGE, Dose: 0, 60 MG/KG IN 0.5 ML OF A STARCH/WATER SUSPENSION 2/WK FOR 12 MO (STUDY DURATION: LIFETIME)) “inactive; negative”.

Regarding `[Ga]#[As]`, the carcinogen call runs as follows: (Species: MOUSE, Strain/Sex: B6C3F1/FEMALE, Route: INHALATION, Dose: 0, 0.1, 0.5, 1 MG/M3 6 HR/D 5D/WK FOR 106 WK (STUDY DURATION: 106 WK), Dose: 0, 0.1, 0.5, 1 MG/M3 6 HR/D 5D/WK FOR 106 WK (STUDY DURATION: 106 WK)) “inactive; negative”; (Species: MOUSE, Strain/Sex: B6C3F1/MALE, Route: INHALATION, Dose: 0, 0.1, 0.5, 1 MG/M3 6 HR/D 5D/WK FOR 105 WK (STUDY DURATION: 105 WK), Dose: 0, 0.1, 0.5, 1 MG/M3 6 HR/D 5D/WK FOR 105 WK (STUDY DURATION: 105 WK)) “inactive; negative”; (Species: MOUSE, Strain/Sex: ICR/MALE, Route: INTRAPERITONEAL, Dose: 0, 48, 480 MG/KG AS GALLIUM SUSPENDED IN OLIVE OIL ONCE (STUDY DURATION: 18 MO), Dose: 0, 48, 480 MG/KG AS GALLIUM SUSPENDED IN OLIVE OIL ONCE (STUDY DURATION: 18 MO)) “inactive; negative”; (Species: MOUSE, Strain/Sex: ICR/MALE, Route: SUBCUTANEOUS, Dose: 0, 48, 480 MG/KG AS GALLIUM SUSPENDED IN OLIVE OIL ONCE (STUDY DURATION: 18 MO), Dose: 0, 48, 480 MG/KG AS GALLIUM SUSPENDED IN OLIVE OIL ONCE (STUDY DURATION: 18 MO)) “inactive; negative”; (Species: RAT, Strain/Sex: F344/N/FEMALE, Route: INHALATION, Dose: 0, 0.01, 0.1, 1 MG/M3 6 HR/D 5D/WK FOR 105 WK (STUDY DURATION: 105 WK), Dose: 0, 0.01, 0.1, 1 MG/M3 6 HR/D 5D/WK FOR 105 WK (STUDY DURATION: 105 WK), Tumor Site: Type of Lesion: LUNG: ALVEOLAR/BRONCHIOLAR ADENOMA) “active; positive”; (Species: RAT, Strain/Sex: F344/N/MALE, Route: INHALATION, Dose: 0, 0.01, 0.1, 1 MG/M3 6 HR/D 5D/WK FOR 105 WK (STUDY DURATION: 105 WK), Dose: 0, 0.01, 0.1, 1 MG/M3 6 HR/D 5D/WK FOR 105 WK (STUDY DURATION: 105 WK)) “inactive; negative”.

Turning to `CN(Cc1ccccc1)N=O`, the carcinogen call by setting is: (Species: MOUSE, Strain/Sex: CD-1/MALE, FEMALE, Route: INTRAPERITONEAL, Dose: 0, 4 MG/KG 2/WK FOR 12 WK, 8 MG/KG 2/WK FOR 6 WK, 16 MG/KG 2/WK FOR 3 WK FOR TOTAL DOSES OF 96 MG/KG (STUDY DURATION: 40, Dose: 0, 4 MG/KG 2/WK FOR 12 WK, 8 MG/KG 2/WK FOR 6 WK, 16 MG/KG 2/WK FOR 3 WK FOR TOTAL DOSES OF 96 MG/KG (STUDY DURATION: 40, Tumor Site: Type of Lesion: FORESTOMACH: PAPILLOMA, CARCINOMA) “active; positive”; (Species: RAT, Strain/Sex: SPRAGUE-DAWLEY/MALE, Route: GAVAGE, Dose: 0, 0.5, 2 MG/KG IN SALINE ONCE ADMINISTERED TO RATS MAINTAINED ON ZINC-DEFICIENT DIET (STUDY DURATION: 14 WK), Dose: 0, 0.5, 2 MG/KG IN SALINE ONCE ADMINISTERED TO RATS MAINTAINED ON ZINC-DEFICIENT DIET (STUDY DURATION: 14 WK), Tumor Site: Type of Lesion: ESOPHAGUS: TUMOR) “active; positive”.

In the case of `O=C(O)[C@@H]1[C@H](C(=O)O)[C@H]2CC[C@@H]1O2`, the carcinogen call was “active; positive (results not described separately for each sex)” (Species: Mouse, Strain/Sex: Crl, CD-1(ICR)BR/Male and female (60/Group), Route: Oral, Dose: 0, 750, 1500 ppm of endothal disodium, purity 19-23.1%, in diet for at least 78 wk, study duration 18 mo, Dose: 0, 750, 1500 ppm of endothal disodium, purity 19-23.1%, in diet for at least 78 wk, study duration 18 mo, Tumor Site: Type of Lesion: Duodenum and jejunum: increased incidence of tumors in high dose group); “active; positive (ca department of pesticide regulation evaluator described as a possibl” (Species: Rat, Strain/Sex: Cr, CD(SD)BR/Female (62/group), Route: Oral, Dose: Nominal concentrations of 0, 300, 900, 1800 ppm in diet for 104 wk, study duration 104 wk (actual concentration about 18, 300, 900, Tumor Site: Type of Lesion: Uterus: endometrial stromal tumors (0, 0, 4/60, 5/59)); “inactive; negative” (Species: Rat, Strain/Sex: Cr, CD(SD)BR/Male (62/group), Route: Oral, Dose: Nominal concentrations of 0, 300, 900, 1800 ppm in diet for 104 wk, study duration 104 wk (actual concentration about 18, 300, 900).

For `COc1ccc(N)cc1`, the carcinogen call by setting is: (Species: MOUSE, Strain/Sex: B6C3F1/FEMALE, Route: ORAL, Dose: 0, 0.5, 1.0% OF DIET FOR 103 WK (STUDY DURATION: 104 WK), Dose: 0, 0.5, 1.0% OF DIET FOR 103 WK (STUDY DURATION: 104 WK)) “inactive; negative”; (Species: MOUSE, Strain/Sex: B6C3F1/MALE, Route: ORAL, Dose: 0, 0.5, 1.0% OF DIET FOR 103 WK (STUDY DURATION: 104 WK), Dose: 0, 0.5, 1.0% OF DIET FOR 103 WK (STUDY DURATION: 104 WK)) “inactive; negative”; (Species: RAT, Strain/Sex: F344/FEMALE, Route: ORAL, Dose: 0, 0.3, 0.6% OF DIET FOR 103 WK (STUDY DURATION: 104-105 WK), Dose: 0, 0.3, 0.6% OF DIET FOR 103 WK (STUDY DURATION: 104-105 WK)) “inactive; negative”; (Species: RAT, Strain/Sex: F344/MALE, Route: ORAL, Dose: 0, 0.3, 0.6% OF DIET FOR 103 WK (STUDY DURATION: 104-105 WK), Dose: 0, 0.3, 0.6% OF DIET FOR 103 WK (STUDY DURATION: 104-105 WK), Tumor Site: Type of Lesion: PREPUTIAL GLAND: ADENOMA OR CARCINOMA) “equivocal”.

`Cc1ccc2cc3c(ccc4ccccc43)c3c2c1CC3OS(=O)(=O)O` (stereo not given): the carcinogen call (Species: RAT, Strain/Sex: SPRAGUE-DAWLEY/FEMALE, Route: SUBCUTANEOUS, Dose: 0, 0.2 UMOL IN 0.1 ML SESAME OIL: DMSO (9:1) 3/WK FOR 20 DOSES (STUDY DURATION: 52 WK), Tumor Site: Type of Lesion: INJECTION SITE: SARCOMA) is “active; positive”.

`CN(N=O)C(=O)Oc1cccc2ccccc12`: the carcinogen call (Species: MOUSE, Strain/Sex: CFLP/FEMALE, Route: DERMAL, Dose: 0, 12.5, 50, 200 UG IN ACETONE 2 D/WK FOR 104 WK (STUDY DURATION: 24 MO), Dose: 0, 12.5, 50, 200 UG IN ACETONE 2 D/WK FOR 104 WK (STUDY DURATION: 24 MO), Tumor Site: Type of Lesion: SKIN: CARCINOMA) was “active; positive”.
